The term IC50 denotes the concentration that gives 50% inhibition. Usually Ki stands for a measure of affinity in units of concentration, obtained from inhibition or displacement.

Molecules are shown by their SMILES.

One series deals with Insulin receptor (Rattus norvegicus, UniProt P15127). In kind it is cell membranes, Wistar, Liver, Membrane.
Series [1] addresses T1, Type-2 angiotensin II receptor (Homo sapiens, UniProt P50052).
T1 sequence (P50052 whole entry): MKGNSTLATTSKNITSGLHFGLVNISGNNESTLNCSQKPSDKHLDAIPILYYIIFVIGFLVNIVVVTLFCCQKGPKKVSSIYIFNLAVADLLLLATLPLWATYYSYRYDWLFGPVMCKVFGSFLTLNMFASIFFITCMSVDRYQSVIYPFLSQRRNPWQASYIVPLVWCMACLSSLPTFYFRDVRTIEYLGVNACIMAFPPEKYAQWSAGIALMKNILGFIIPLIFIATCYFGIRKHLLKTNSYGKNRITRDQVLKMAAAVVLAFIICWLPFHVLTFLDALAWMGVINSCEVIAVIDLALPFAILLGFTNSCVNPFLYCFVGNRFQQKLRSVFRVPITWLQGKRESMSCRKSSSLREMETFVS
In kind it is cell-based. The following applies: cho-k1.

Series [2] deals with T2, Neuropeptide Y receptor type 2 (Homo sapiens, UniProt P49146).
T2 sequence (P49146 whole entry): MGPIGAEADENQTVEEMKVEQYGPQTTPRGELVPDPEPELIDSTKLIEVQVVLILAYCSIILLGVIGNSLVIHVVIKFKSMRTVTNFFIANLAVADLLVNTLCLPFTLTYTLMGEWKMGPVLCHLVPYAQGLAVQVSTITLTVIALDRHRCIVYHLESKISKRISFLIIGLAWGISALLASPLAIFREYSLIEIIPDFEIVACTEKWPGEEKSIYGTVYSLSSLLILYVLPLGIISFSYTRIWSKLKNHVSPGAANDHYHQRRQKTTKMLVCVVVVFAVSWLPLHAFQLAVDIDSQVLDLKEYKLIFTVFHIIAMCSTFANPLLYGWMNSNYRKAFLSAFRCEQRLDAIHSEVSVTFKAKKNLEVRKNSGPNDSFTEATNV
In kind it is cell membranes, Membrane. The settings on record: kan-ts.

Series [3] concerns the target T3, Alpha-2A adrenergic receptor (Homo sapiens, UniProt P08913). Also: in other assays of this panel Not Active means under 50% inhibition at 10 µM.
T3 sequence (P08913 whole entry): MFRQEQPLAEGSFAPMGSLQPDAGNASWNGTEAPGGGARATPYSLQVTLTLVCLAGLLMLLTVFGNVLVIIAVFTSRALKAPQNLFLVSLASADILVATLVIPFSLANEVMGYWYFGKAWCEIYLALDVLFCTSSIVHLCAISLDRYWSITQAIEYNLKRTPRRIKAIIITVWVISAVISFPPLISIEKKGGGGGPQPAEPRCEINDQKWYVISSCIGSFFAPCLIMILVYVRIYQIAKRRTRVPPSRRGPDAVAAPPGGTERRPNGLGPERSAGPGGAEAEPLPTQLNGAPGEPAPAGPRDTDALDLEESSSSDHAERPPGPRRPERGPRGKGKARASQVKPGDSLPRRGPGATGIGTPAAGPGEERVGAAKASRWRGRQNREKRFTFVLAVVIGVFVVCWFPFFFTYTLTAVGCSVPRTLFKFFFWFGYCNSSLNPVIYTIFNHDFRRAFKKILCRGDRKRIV
Type of series: cell membranes, Sf9, Membrane. The following applies: sf9.

The target of series [4] is Beta-1 adrenergic receptor (Homo sapiens, UniProt P08588). Kind of series: DRUGMATRIX: Adrenergic beta1 radioligand binding (ligand: [125I] Cyanopindolol). Type of series: cell membranes, CHO-K1, Membrane. The following applies: cho-k1; Not Active = under 50% inhibition at 10 µM.
Chain of Beta-1 adrenergic receptor (P08588 whole entry): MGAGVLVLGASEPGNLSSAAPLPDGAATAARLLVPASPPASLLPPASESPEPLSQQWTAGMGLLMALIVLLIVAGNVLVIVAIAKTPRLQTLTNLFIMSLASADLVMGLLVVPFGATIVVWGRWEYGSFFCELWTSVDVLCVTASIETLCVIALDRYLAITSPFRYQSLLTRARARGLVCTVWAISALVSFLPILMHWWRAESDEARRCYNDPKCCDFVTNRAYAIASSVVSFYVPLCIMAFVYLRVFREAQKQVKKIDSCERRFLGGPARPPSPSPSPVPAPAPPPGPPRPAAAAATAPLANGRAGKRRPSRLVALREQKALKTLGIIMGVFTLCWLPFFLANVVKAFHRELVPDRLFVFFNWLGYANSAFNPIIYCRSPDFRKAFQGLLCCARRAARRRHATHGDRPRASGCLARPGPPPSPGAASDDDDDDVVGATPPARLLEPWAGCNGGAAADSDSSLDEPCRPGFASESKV
Series [5] deals with Receptor tyrosine-protein kinase erbB-2 (Homo sapiens, UniProt P04626). The series can be described thus: biochemical. Type of series: cell-based, Insect cells. The settings on record: insect cells.
Chain of Receptor tyrosine-protein kinase erbB-2 (P04626 whole entry): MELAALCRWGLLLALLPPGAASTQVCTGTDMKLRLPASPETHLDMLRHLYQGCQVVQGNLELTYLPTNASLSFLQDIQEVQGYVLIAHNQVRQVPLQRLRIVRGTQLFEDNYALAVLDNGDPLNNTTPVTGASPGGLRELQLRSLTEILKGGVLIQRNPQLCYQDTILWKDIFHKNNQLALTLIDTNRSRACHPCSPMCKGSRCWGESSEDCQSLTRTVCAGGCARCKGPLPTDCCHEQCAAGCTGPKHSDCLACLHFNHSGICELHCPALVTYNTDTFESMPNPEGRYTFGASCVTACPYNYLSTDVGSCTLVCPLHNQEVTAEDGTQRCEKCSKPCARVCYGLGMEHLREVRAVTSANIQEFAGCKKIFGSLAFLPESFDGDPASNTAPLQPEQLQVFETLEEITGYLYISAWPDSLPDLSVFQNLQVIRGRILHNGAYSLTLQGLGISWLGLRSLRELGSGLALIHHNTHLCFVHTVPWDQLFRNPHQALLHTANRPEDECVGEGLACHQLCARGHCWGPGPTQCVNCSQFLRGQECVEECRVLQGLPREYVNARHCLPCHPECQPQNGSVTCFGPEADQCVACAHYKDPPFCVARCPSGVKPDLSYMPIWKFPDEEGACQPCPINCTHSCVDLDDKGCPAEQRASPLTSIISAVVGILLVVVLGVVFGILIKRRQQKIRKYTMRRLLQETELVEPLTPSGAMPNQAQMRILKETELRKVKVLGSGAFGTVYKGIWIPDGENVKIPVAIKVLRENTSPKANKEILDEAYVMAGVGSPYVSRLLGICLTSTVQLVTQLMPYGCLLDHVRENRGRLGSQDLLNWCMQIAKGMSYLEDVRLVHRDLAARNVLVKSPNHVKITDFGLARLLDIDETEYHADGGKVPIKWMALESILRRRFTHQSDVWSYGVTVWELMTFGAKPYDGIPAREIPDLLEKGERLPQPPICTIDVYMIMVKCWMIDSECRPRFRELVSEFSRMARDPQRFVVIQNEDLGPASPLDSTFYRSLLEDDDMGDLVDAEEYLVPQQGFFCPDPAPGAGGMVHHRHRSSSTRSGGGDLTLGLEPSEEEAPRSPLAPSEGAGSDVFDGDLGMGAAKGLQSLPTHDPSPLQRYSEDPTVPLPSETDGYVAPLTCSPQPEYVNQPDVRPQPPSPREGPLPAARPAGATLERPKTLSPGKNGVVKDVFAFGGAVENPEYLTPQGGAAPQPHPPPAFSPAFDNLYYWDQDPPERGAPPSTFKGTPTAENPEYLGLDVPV
Series [6] concerns the target T4, Alpha-2C adrenergic receptor (Homo sapiens, UniProt P18825).
T4 sequence (P18825 whole entry): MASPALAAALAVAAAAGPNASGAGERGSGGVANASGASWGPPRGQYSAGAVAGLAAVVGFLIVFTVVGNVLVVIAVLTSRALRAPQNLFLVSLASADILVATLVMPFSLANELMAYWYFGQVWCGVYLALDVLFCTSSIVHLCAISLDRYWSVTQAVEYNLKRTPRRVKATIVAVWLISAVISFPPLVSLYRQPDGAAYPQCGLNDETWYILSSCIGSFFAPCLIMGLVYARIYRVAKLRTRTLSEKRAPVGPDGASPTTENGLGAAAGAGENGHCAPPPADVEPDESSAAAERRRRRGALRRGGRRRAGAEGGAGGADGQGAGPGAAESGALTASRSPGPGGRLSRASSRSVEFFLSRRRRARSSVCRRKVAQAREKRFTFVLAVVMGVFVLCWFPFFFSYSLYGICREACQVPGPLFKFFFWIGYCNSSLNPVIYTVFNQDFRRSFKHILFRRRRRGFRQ
The series can be described thus: DRUGMATRIX: Adrenergic Alpha-2C radioligand binding (ligand: [3H] MK-912). The settings on record: sf9. In kind it is cell membranes, Sf9, Membrane.

A short description of series [7]: DRUGMATRIX: GABAA, Flunitrazepam, Central radioligand binding (ligand: [3H] Flunitrazepam). Type of series: cell membranes, Rattus norvegicus, Wistar, Brain, Membrane. The settings on record: Not Active = under 50% inhibition at 10 µM.
In series [8] the target is 5-hydroxytryptamine receptor 1B (Rattus norvegicus, UniProt P28564). Type of series: cell membranes, Wistar, Cerebral cortex, Membrane. Also: in other assays of this panel Not Active means under 50% inhibition at 10 µM.
Chain of 5-hydroxytryptamine receptor 1B (P28564 whole entry): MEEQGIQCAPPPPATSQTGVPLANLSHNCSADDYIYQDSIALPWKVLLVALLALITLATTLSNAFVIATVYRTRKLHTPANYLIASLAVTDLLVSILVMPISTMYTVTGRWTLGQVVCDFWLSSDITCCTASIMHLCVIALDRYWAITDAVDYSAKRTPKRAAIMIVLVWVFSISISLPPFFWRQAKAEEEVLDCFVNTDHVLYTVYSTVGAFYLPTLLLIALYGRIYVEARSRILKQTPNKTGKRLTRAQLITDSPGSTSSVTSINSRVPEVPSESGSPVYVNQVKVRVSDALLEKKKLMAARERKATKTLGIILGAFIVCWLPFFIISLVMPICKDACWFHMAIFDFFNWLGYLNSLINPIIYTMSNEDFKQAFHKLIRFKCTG
Another series addresses T5, Adenosine receptor A1 (Homo sapiens, UniProt P30542).
T5 sequence (P30542 whole entry): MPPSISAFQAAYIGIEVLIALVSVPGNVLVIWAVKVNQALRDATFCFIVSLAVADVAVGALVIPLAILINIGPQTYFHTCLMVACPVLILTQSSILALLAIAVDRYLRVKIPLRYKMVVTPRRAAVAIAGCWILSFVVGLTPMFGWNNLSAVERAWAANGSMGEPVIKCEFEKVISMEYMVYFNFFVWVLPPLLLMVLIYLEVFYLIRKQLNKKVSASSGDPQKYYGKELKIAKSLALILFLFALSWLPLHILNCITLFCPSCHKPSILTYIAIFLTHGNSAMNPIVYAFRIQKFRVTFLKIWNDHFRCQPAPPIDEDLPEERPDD
Type of series: cell membranes, CHO, Membrane. The following applies: cho.

The target in series [9] is Voltage-gated inwardly rectifying potassium channel KCNH2 (Homo sapiens, UniProt Q12809). The following applies: hek293. Also: in other assays of this panel Not Active means under 50% inhibition at 10 µM.
Chain of Voltage-gated inwardly rectifying potassium channel KCNH2 (Q12809 whole entry): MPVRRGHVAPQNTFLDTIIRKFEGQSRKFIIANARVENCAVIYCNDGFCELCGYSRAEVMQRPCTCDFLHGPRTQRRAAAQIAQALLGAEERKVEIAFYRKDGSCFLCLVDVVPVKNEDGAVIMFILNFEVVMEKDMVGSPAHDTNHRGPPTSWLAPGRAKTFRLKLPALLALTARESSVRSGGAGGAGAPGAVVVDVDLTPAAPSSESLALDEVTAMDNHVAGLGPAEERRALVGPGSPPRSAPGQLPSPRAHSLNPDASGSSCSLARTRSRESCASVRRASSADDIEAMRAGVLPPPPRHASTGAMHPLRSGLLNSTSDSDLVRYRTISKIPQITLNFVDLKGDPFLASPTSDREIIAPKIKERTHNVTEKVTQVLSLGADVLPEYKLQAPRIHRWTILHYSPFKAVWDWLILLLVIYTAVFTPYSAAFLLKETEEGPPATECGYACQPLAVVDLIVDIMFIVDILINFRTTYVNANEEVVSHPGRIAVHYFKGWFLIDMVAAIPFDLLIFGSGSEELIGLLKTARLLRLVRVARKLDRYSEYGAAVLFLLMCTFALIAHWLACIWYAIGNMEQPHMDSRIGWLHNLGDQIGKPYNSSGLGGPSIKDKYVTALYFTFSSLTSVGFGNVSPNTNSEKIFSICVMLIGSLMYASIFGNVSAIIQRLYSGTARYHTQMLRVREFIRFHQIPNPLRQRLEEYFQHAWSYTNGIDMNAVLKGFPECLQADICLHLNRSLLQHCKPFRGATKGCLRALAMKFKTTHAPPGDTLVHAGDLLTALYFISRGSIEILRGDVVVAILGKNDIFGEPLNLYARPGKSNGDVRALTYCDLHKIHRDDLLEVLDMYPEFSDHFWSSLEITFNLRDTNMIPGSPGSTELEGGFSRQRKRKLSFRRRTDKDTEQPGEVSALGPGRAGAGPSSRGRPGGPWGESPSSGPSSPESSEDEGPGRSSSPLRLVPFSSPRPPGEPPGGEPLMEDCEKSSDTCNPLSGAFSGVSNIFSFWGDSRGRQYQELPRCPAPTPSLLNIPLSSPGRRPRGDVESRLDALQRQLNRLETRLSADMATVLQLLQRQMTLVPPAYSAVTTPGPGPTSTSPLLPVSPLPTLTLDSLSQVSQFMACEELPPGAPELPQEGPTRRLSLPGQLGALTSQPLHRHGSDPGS
Series [10] can be described thus: DRUGMATRIX: Calcium Channel Type L, Phenylalkylamine radioligand binding (ligand: [3H] (-)-Desmethoxyverapamil (D-888)). In kind it is cell membranes, Rattus norvegicus, Wistar, Brain, Membrane. The settings on record: Not Active = under 50% inhibition at 10 µM.

Chain of Insulin receptor (P15127 27-759 limits assumed): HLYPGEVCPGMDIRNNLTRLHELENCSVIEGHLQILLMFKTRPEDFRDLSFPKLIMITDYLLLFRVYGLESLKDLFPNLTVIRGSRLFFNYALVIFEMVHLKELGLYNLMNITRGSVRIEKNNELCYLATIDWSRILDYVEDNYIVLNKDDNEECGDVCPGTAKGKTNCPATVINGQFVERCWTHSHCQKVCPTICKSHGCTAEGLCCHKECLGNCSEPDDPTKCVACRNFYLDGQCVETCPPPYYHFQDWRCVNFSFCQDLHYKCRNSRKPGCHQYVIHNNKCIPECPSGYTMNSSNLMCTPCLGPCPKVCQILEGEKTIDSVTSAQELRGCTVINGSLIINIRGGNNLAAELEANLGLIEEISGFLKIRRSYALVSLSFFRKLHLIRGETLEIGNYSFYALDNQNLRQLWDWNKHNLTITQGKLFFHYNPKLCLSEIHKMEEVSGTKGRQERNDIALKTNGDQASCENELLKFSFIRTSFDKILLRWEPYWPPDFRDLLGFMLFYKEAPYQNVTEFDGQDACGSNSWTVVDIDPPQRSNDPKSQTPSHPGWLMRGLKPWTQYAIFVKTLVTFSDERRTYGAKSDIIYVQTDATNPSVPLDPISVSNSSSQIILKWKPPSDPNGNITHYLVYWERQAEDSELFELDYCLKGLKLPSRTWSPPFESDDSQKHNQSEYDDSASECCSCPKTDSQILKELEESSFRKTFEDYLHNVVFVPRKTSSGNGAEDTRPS
Chain of Insulin receptor (P15127 764-1383 limits assumed): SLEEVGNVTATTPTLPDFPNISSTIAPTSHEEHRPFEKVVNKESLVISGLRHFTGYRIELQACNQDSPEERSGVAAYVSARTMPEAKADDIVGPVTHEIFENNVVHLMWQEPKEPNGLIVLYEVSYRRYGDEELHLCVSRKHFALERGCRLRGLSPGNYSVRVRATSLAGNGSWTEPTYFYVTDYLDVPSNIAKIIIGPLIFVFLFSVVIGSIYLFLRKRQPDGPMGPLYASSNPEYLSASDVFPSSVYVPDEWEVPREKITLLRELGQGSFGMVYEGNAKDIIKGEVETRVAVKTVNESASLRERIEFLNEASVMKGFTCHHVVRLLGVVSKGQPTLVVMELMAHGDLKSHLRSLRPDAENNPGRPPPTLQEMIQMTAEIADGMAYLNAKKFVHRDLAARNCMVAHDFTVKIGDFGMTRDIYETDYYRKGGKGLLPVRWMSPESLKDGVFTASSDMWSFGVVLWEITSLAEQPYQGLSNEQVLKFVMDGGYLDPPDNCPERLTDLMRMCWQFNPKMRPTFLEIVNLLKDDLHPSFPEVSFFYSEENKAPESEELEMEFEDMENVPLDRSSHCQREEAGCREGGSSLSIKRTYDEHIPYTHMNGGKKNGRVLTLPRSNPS

In the case of `C/C=C1\[C@H]2C=C(C)C[C@]1(N)c1ccc(=O)[nH]c1C2` [HUPERZINE A], the concentration for half-maximal inhibition (IC50) entry (at Insulin receptor; in series [1]; in series [2]; in series [3]; in series [4]; in series [5]) was “Not Active” each time. The concentration for half-maximal inhibition (IC50) result (in series [6]; in series [7]; in series [8]; at Adenosine receptor A1; in [9]; in series [10]) was “Not Active” throughout. Further, the Ki result in series [7], in series [9] and in series [10] was “Not Active” throughout.

On to `NS(=O)(=O)c1cc2c(cc1Cl)NCNS2(=O)=O` [HYDROCHLOROTHIAZIDE], for which the IC50 result (against Insulin receptor; in series [1]; in series [2]; in series [3]; in [4]; in series [5]) was “Not Active” each time. Besides, the 50% inhibitory concentration (IC50) result (in [6]; in series [7]; in series [8]; against Adenosine receptor A1; in series [9]; in series [10]) was “Not Active” each time. Besides, the inhibition constant (Ki) entry in series [7], in series [9] and in series [10] was “Not Active” throughout.

On to `O=P1(NCCCl)OCCCN1CCCl` (stereo not given) [IFOSFAMIDE], for which the IC50 entry (against Insulin receptor; in [1]; in [2]; in series [3]; in [4]; in series [5]) was “Not Active” throughout. Besides, the half-maximal inhibitory concentration (IC50) result (in series [6]; in [7]; in series [8]; against Adenosine receptor A1; in series [9]; in [10]) was “Not Active” each time. Moreover, the inhibitory constant (Ki) result in series [7], in series [9] and in series [10] was “Not Active” throughout.

Turning to `CN1CCC[C@H]1c1cccnc1` [NICOTINE], the IC50 result (at Insulin receptor; in series [1]; in series [2]; in series [3]; in series [4]; in [5]) was “Not Active” in each case. Further, the concentration for half-maximal inhibition (IC50) entry (in series [6]; in [7]; in [8]; against Adenosine receptor A1; in [9]; in series [10]) was “Not Active” in each case. Also, the Ki result in series [7], in series [9] and in series [10] was “Not Active” throughout.

Regarding `O=C1CN=C(c2ccccc2)c2cc([N+](=O)[O-])ccc2N1` [NITRAZEPAM], the IC50 entry (against Insulin receptor; in series [1]; in series [2]; in series [3]; in series [4]; in series [5]) was “Not Active” throughout. The IC50 entry in series [6] is “Not Active”; in series [7] (read-out: IC50), 0.0547 µM; in series [8] it was “Not Active”; on Adenosine receptor A1 it was “Not Active”; in series [9], “Not Active”; in series [10] it was “Not Active”. Moreover, the Ki was 0.0446 µM in series [7] (read-out: Ki), “Not Active” in [9] and “Not Active” in series [10].

In the case of `CC1COc2c(N3CCN(C)CC3)c(F)cc3c(=O)c(C(=O)O)cn1c23` (stereo not given) [OFLOXACIN], the half-inhibitory concentration (IC50) result (at Insulin receptor; in series [1]; in series [2]; in series [3]; in [4]; in series [5]) was “Not Active” throughout. Also, the IC50 entry (in series [6]; in series [7]; in [8]; against Adenosine receptor A1; in [9]; in series [10]) was “Not Active” in each case. Besides, the Ki entry in [7], in [9] and in series [10] was “Not Active” in each case.

Regarding `Oc1cccc2cccnc12` [OXYQUINOLINE], the IC50 result (at Insulin receptor; in series [1]; in [2]; in series [3]; in series [4]; in series [5]) was “Not Active” in each case. The IC50 entry (in series [6]; in series [7]; in series [8]; at Adenosine receptor A1; in series [9]; in [10]) was “Not Active” each time. Moreover, the inhibitory constant (Ki) result in series [7], in series [9] and in [10] was “Not Active” each time.
